From ChEMBL document CHEMBL1136060, “A new class of type I protein geranylgeranyltransferase (GGTase I) inhibitor” (Bioorg Med Chem Lett, 2002)
“And” between values parts separate entries of the source, which are not always exact repeats. Identical values can stand only once.

The molecules below were run on Candida albicans (assay: Antifungal activity against Candida albicans).
Type: functional

| MIC [mg/L] | Compound |
| --- | --- |
| > 120 | O=C(OC(CS)C(O)CS)c1csc(C2COc3ccccc3O2)n1 (configuration not stated) |

Each molecule was assayed against T1, Geranylgeranyl transferase type I (Homo sapiens, UniProt P49354+P53609) (assay: Tested for the selectivity against human geranylgeranyl transferase I).
Type: protein-complex assay

| Selectivity | Compound |
| --- | --- |
| > 1000 | O=C(N[C@H](Cc1ccc(Cl)c(Cl)c1)C(=O)NCCc1c[nH]cn1)C1c2ccccc2Oc2ccccc21 |

These molecules were tested against Protein farnesyltransferase (Homo sapiens, UniProt P49354+P49356) (assay: Inhibition of human farnesyl transferase).
Type: protein-complex assay

| IC50 [µM] | Compound |
| --- | --- |
| > 1000 | O=C(OC(CS)C(O)CS)c1csc(C2COc3ccccc3O2)n1 (configuration not stated) |

What follows are molecules tested against T1, Geranylgeranyl transferase type I (assay: Inhibition of human geranylgeranyl transferase I).
Type: protein-complex assay

| IC50 [µM] | Compound |
| --- | --- |
| 40 | O=C(OC(CS)C(O)CS)c1csc(C2COc3ccccc3O2)n1 (configuration not stated) |

These molecules were tested against Geranylgeranyl transferase type I (Candida albicans) (assay: Inhibition of Candida geranylgeranyl transferase I […]).

| IC50 [µM] | Compound |
| --- | --- |
| 0.017 | O=C(OC(CS)C(O)CS)c1csc(C2COc3ccccc3O2)n1 (configuration not stated) |
| 0.24 | O=C(OCCCS)c1csc(C2COc3ccccc3O2)n1 (configuration not stated) |
| 1.3 | O=C(OCCS)c1csc(C2COc3ccccc3O2)n1 (configuration not stated) |

What follows are molecules tested against Geranylgeranyl transferase type I (Candida albicans) (assay: Inhibition of Candida geranylgeranyl transferase I).

| IC50 [µM] | Compound |
| --- | --- |
| 0.017 | O=C(OC(CS)C(O)CS)c1csc(C2COc3ccccc3O2)n1 (configuration not stated) |

These molecules were tested on Geranylgeranyl transferase type I (Candida albicans) (assay: Tested for the inhibition of Candida GGTase I in Candida albicans at concentration of 3 uM).

| Compound | inhibition |
| --- | --- |
| NC(=O)[C@@H](Cc1c[nH]cn1)NC(=O)[C@@H](Cc1cccc2ccccc12)NC(=O)C1c2ccccc2Oc2ccccc21 | 97% |
| NC(=O)[C@@H](Cc1c[nH]cn1)NC(=O)[C@@H](Cc1cccc2ccccc12)NC(=O)C1c2ccccc2-c2ccccc21 | 71% and 96% |
| O=C(NC(Cc1c[nH]c2ccccc12)C(=O)OCCCS)C1Cc2ccccc2C1 (configuration not stated) | 72% |
| O=C(NC(C(=O)OCCCS)c1cccc2ccccc12)C1Cc2ccccc2C1 (configuration not stated) | 90% |
| NC(=O)[C@@H](Cc1c[nH]cn1)NC(=O)[C@@H](Cc1cccc2ccccc12)NC(=O)C1Cc2ccccc2C1 | 48% |
| O=C(NC(Cc1ccc2ccccc2c1)C(=O)OCCCS)C1Cc2ccccc2C1 (configuration not stated) | 36% |

Other lines, results leading:

| inhibition | Compound |
| --- | --- |
| 25% | O=C(OCCCS)C(Cc1ccc2ccccc2c1)NC(=O)C1COc2ccccc2O1 (configuration not stated) |
| 63% | O=C(NC(Cc1ccccc1)C(=O)OCCCS)C1Cc2ccccc2C1 (configuration not stated) |
| < 10% | O=C(O)CCC(NC(=O)C1Cc2ccccc2C1)C(=O)OCCCS (configuration not stated) |
| 55% | O=C(OCCCS)C(Cc1ccccc1)NC(=O)C1COc2ccccc2O1 (configuration not stated) |
| < 10% | O=C(OCCCS)C(CC1CCCCC1)NC(=O)C1COc2ccccc2O1 (configuration not stated) |
| < 10% | CC(O)C(NC(=O)C1Cc2ccccc2C1)C(=O)OCCCS (configuration not stated) |
| < 10% | O=C(NC(CC1CCCCC1)C(=O)OCCCS)C1Cc2ccccc2C1 (configuration not stated) |
| < 10% | CC(O)C(NC(=O)C1COc2ccccc2O1)C(=O)OCCCS (configuration not stated) |
| < 10% | O=C(O)CCC(NC(=O)C1COc2ccccc2O1)C(=O)OCCCS (configuration not stated) |
| < 10% | O=C(CNC(=O)C1Cc2ccccc2C1)OCCCS |
| 72% | O=C(OCCCS)C(Cc1c[nH]c2ccccc12)NC(=O)C1COc2ccccc2O1 (configuration not stated) |
| < 10% | O=C(CNC(=O)C1COc2ccccc2O1)OCCCS (configuration not stated) |
| 89% | O=C(NC(C(=O)OCCCS)c1cccc2ccccc12)C1COc2ccccc2O1 (configuration not stated) |

These molecules were tested against Geranylgeranyl transferase type I (Candida albicans) (assay: Tested for the inhibition of Candida GGTase I in Candida albicans).

| IC50 [µM] | Compound |
| --- | --- |
| 0.031 | O=C(OCC(O)CS)c1csc(C2COc3ccccc3O2)n1 (configuration not stated) |
| 0.0073 | O=C(N[C@H](Cc1cccc2ccccc12)C(=O)OCCCS)C1Cc2ccccc2C1 |
| 0.01 | O=C(N[C@H](Cc1ccc(Cl)c(Cl)c1)C(=O)NCCc1c[nH]cn1)C1c2ccccc2Oc2ccccc21 |
| 0.35 | O=C(N[C@H](Cc1cccc2ccccc12)C(=O)NCCc1cnc[nH]1)C1Cc2ccccc2C1 |
| 0.78 | O=C(NCCCS)c1csc(C2COc3ccccc3O2)n1 (configuration not stated) |
